Measured values from patent EP0450065A1, “ANTIVIRAL AGENT” (priority 1988, dated 1990).
Values joined by “and” are separate entries in the source; they are usually repeats but may differ in a detail not shown here. Equal entries are not always repeated.

Legend:
Assay type in all cases: cell-based
[1] = test system: herpes simplex virus type 1 (KOS strain); test: Control of CPE (cytopathic effect) manifestation in vero cells; settings: HSV-1 (KOS), Example 7
Protocol: Vero cells cultured and grown in a monolayer on microplates to test for cytopathic effect due to viral infection, with solutions of Compound A diluted to varying ratios and solutions of virus diluted to varying ratios added severally thereto in a volume of 0.1 ml, were cultured under the conditions of 5% CO₂ and 37°C and were examined for CPE manifestation under a microscope. The observation was continued for five to six days.
The degree of CPE brought about by viral infection was rated on the five-point scale, wherein 3 stands for CPE observed on not less than 75% of cultured cells, 2 for CPE observed on 50% of cultured cells, 1 for CPE observed on 25% of cultured cells, 0.5 for occurrence of one to two extremely minute DPE spots, and 0 for perfect absence of recognizable CPE. The CPE scores obtained at the four holes in each microplate were averaged and the difference of the average from the average obtained in the control (omitting the treatment with a chemical) was reported as ΔCPE.
(§1) Antiviral activity of Compound A and Compound B against herpes simplex virus type 1 (KOS strain) The test was carried out by following the procedure of Example 3.

[2] = test system: herpes simplex virus type 1 (HF strain); test: 50% Tissue culture infective dose (TCID50), Read-Munch method, negative logarithm of virus dilution; settings: for Cytopathic effect [CPE] (3days) △TCID50 / Cytopathic effect [CPE] (5days) △TCID50 / Cytopathic effect [CPE] (3days) ΔTCID50 / Cytopathic effect [CPE] (6days) ΔTCID50: difference from control
Protocol: In vitro antiviral activity of Compound A against herpes simplex virus type 1 (HF strain) Compound A was tested for antiviral effect by the following two methods.
(§2) The amount of virus infecting 50% of tissues (TCID₅₀) was determined by the Read-Munch method and expressed in negative logarithm of the maximum radio of dilution of virus. The difference of the amount thus determined from the amount found in the control (omitting the treatment with a chemical) was reported as ΔTCID₅₀. A sample whose ΔCPE's found on the last day of observation and on each of the days spent for the observation exceeded 1.0 was evaluated as effective.
In vitro antiviral effect of Compound A against herpes simplex virus type 1 (HF strain) The test was carried out by following the procedure of Example 3.

[3] = test system: herpes simplex virus type 1 (KOS strain); test: as above; parameters: key to Cytopathic effect [CPE] (5days) TCID50 / Cytopathic effect [CPE] (3days) TCID50: TCID50 as negative log of maximum virus dilution ratio; key to Cytopathic effect [CPE] (5days) △TCID50 / Cytopathic effect [CPE] (3days) △TCID50: difference from control TCID50, in negative log of virus dilution; settings: HSV-1 (KOS), Example 7; for Cytopathic effect [CPE] (3days) △TCID50 / Cytopathic effect [CPE] (5days) △TCID50: difference from control
Protocol: as §2, §1

[4] = test system: herpes simplex virus type 1 (KOS strain); test: One-step growth of virus, plaque assay with vero cells; settings: for Intracellular virus Average / Intracellular virus Control ratio % / Intracellular virus Control ratio -logT/C: 24 hours
Protocol: Antiviral activity of Compound A and Compound B against one-step growth of herpes simplex virus type 1 (KOS strain) Cells grown in a monolayer, with a sample of a given compound diluted in a varying ratio added, were pretreated for 15 minutes. Then, the pretreated cells were infected with the herpes simplex virus type 1 (KOS strain) at an infecting ratio of 0.25 and left standing for 24 hours. At the end of the standing, the intracellular and extracellular amounts of virus were determined by the plaque assay with vero cells.

[5] = 200 μg/ml, difference from control
[6] = 10 μg/ml, HSV-1 (HF), Example 3
[7] = 20 μg/ml, HSV-1 (HF), Example 3
[8] = 50 μg/ml, HSV-1 (HF), Example 3
[9] = 100 μg/ml, HSV-1 (HF strain), Example 5
[10] = 100 μg/ml, HSV-1 (HF), Example 3
[11] = 200 μg/ml, HSV-1 (HF strain), Example 5

With K₅BW₁₂O₄₀.15H₂O [Compound A] the “Cytopathic effect [CPE] (5days) △CPE” value ([1]; 100 μg/ml, difference from control) was 3.0, the “Cytopathic effect [CPE] (3days) Average” value ([1]; 200 μg/ml) was 0 and the “Cytopathic effect [CPE] (5days) Average” value ([1]; 200 μg/ml) was 0. For the same substance, the “Cytopathic effect [CPE] (3days) △CPE” value [1, 5] was 2.0, the “Cytopathic effect [CPE] (5days) △CPE” value [1, 5] was 3.0 and the “Cytopathic effect [CPE] (3days) TCID50” value ([2]; 5 μg/ml, HSV-1 (HF), Example 3) was 5.5. The “Cytopathic effect [CPE] (5days) TCID50” value ([2]; 5 μg/ml, HSV-1 (HF), Example 3) was 5.7, the “Cytopathic effect [CPE] (3days) △TCID50” value ([2]; 5 μg/ml, HSV-1 (HF), Example 3) was 0.5 and the “Cytopathic effect [CPE] (5days) △TCID50” value ([2]; 5 μg/ml, HSV-1 (HF), Example 3) was 0.3. The “Cytopathic effect [CPE] (3days) TCID50” value [2, 6] was 5.7, the “Cytopathic effect [CPE] (5days) TCID50” value [2, 6] was 5.7 and the “Cytopathic effect [CPE] (3days) △TCID50” value [2, 6] was 0.3. For the same substance, the “Cytopathic effect [CPE] (5days) △TCID50” value [2, 6] was 0.3, the “Cytopathic effect [CPE] (3days) TCID50” value [2, 7] was 5.7 and the “Cytopathic effect [CPE] (5days) TCID50” value [2, 7] was 5.7. For the same substance, the “Cytopathic effect [CPE] (3days) △TCID50” value [2, 7] was 0.3, the “Cytopathic effect [CPE] (5days) △TCID50” value [2, 7] was 0.3 and the “Cytopathic effect [CPE] (3days) TCID50” value [2, 8] was 5.7. The “Cytopathic effect [CPE] (5days) TCID50” value [2, 8] was 5.7, the “Cytopathic effect [CPE] (3days) △TCID50” value [2, 8] was 0.3 and the “Cytopathic effect [CPE] (5days) △TCID50” value [2, 8] was 0.3. The “Cytopathic effect [CPE] (3days) TCID50” value [2, 9] was 4.7, the “Cytopathic effect [CPE] (6days) TCID50” value [2, 9] was 5.0 and the “Cytopathic effect [CPE] (3days) ΔTCID50” value [2, 9] was 1.6. The “Cytopathic effect [CPE] (6days) ΔTCID50” value [2, 9] was 1.3, the “Cytopathic effect [CPE] (3days) TCID50” value [2, 10] was 5.3 and the “Cytopathic effect [CPE] (5days) TCID50” value [2, 10] was 5.3. The “Cytopathic effect [CPE] (3days) △TCID50” value [2, 10] was 0.7, the “Cytopathic effect [CPE] (5days) △TCID50” value [2, 10] was 0.3 and the “Cytopathic effect [CPE] (3days) TCID50” value [2, 11] was <3.5. For the same substance, the “Cytopathic effect [CPE] (6days) TCID50” value [2, 11] was <3.5, the “Cytopathic effect [CPE] (3days) ΔTCID50” value [2, 11] was >2.8 and the “Cytopathic effect [CPE] (6days) ΔTCID50” value [2, 11] was > 2.8 and >2.5. The ΔTCID₅₀ ([2]; varying concentrations of from 5 to 100 µg/ml, fifth day of observation, HSV-1 (HF), Example 3) was 0.3, the “Cytopathic effect [CPE] (3days) TCID50” value ([3]; 100 μg/ml) was 3.5 and the “Cytopathic effect [CPE] (5days) TCID50” value ([3]; 100 μg/ml) was 3.5. For the same substance, the “Cytopathic effect [CPE] (3days) △TCID50” value ([3]; 100 μg/ml) was 2.0, the “Cytopathic effect [CPE] (5days) △TCID50” value ([3]; 100 μg/ml) was 2.5 and the “Cytopathic effect [CPE] (3days) TCID50” value ([3]; 200 μg/ml) was 3.5. The “Cytopathic effect [CPE] (5days) TCID50” value ([3]; 200 μg/ml) was 3.5, the “Cytopathic effect [CPE] (3days) △TCID50” value ([3]; 200 μg/ml) was 2.0 and the “Cytopathic effect [CPE] (5days) △TCID50” value ([3]; 200 μg/ml) was 2.5. The “Intracellular virus Average” value ([4]; 50 μg/ml, extracellular virus) was 7.13×10^5 /dish, the “Intracellular virus Control ratio %” value ([4]; 50 μg/ml, extracellular virus) was 97.6% and the “Intracellular virus Control ratio -logT/C” value ([4]; 50 μg/ml, extracellular virus) was 1.623. The “Intracellular virus Average” value ([4]; 50 μg/ml) was 1.34×10^6 /dish, the “Intracellular virus Control ratio %” value ([4]; 50 μg/ml) was 99.7% and the “Intracellular virus Control ratio -logT/C” value ([4]; 50 μg/ml) was 2.482. For the same substance, the “Intracellular virus Average” value ([4]; 100 μg/ml, extracellular virus) was 8.38×10^4 /dish, the “Intracellular virus Control ratio %” value ([4]; 100 μg/ml, extracellular virus) was 99.7% and the “Intracellular virus Control ratio -logT/C” value ([4]; 100 μg/ml, extracellular virus) was 2.554. For the same substance, the “Intracellular virus Average” value ([4]; 100 μg/ml) was 1.99×10^6 /dish, the “Intracellular virus Control ratio -logT/C” value ([4]; 100 μg/ml) was 7.211 and the “Intracellular virus Control ratio %” value ([4]; 100 μg/ml, 1440 min) was >99.9%. For the same substance, the “Intracellular virus Control ratio -logT/C” value ([4]; 200 μg/ml, extracellular virus) was 5.778, the “Intracellular virus Control ratio %” value ([4]; 200 μg/ml, extracellular virus, 1440 min) was >99.9% and the “Intracellular virus Control ratio -logT/C” value ([4]; 200 μg/ml) was > 7.211. For the same substance, the “Intracellular virus Control ratio %” value ([4]; 200 μg/ml, 1440 min) was >99.9% and the “control of the intracellular and extracellular viruses in the one-step growth” value ([4]; concentration not given, 1440 min) was “not less than 99.9%”.
